# From patent US20110033393A1, “Hydrazone Compounds and Their Use” (priority 2009, published 2011)
# Test system: isolated rat primary islets
# Experiment: Insulin release from isolated primary rat islets
# Format: cell-based
# Protocol: Isolation of Rat Islets: Islets were isolated from 226-250 g male Sprague Dawley rats from Taconic. The animals were initially anesthetized with CO2 gas and euthanized by cervical dislocation. The pancreatic duct was injected with 15 to 30 ml of Collagenase P (Roche Diagnostics catalog #1 249 002) at 0.6 mg/ml in Hanks' Balanced Salt Solution (HBSS) (Gibco Catalog #14025-076) supplemented with BSA (Sigma, catalog #A 7409) to a final concentration of 0.1%. The pancreas was excised and placed into a 20 ml scintillation vial, incubated in a water bath at 37° C. for 16 to 18 minutes and then shaken briskly for at least 60 seconds. The digested tissue was poured into a 50 ml conical tube (1 per tube) containing cold Hank's Buffer supplemented with BSA (as above) and washed 7-10 times. […]
# Measurement of Insulin Release: Insulin release measurements were carried out in Krebs-Ringer bicarbonate buffer (118.4 mmol/liter NaCl, 4.69 mmol/liter KCl, 1.2 mmol/liter MgSO4, 1.18 mmol/liter KH2PO4, 2.4 mmol/liter CaCl2, and 20 mmol/liter NaHCO3 (equilibrated with 95% O2 and 5% CO2, pH 7.4) supplemented with BSA to a final concentration of 0.1%). […] Insulin release in the supernatant was assessed using a commercially available ELISA kit (Mercodia-Cat. #10-1124-10) according to the manufacturer's protocol. The data were expressed as pg of insulin per number of cells. […]
structure (smiles),measurement,setting,value
"Cc1cc(/C=N/NC(=O)C2CC2c2ccccc2)cc2cccnc12 (racemic) [Example 10, trans-N′-((8-Methylquinolin-6-yl)methylene)-2-phenylcyclopropanecarbohydrazide]",insulin secretion,"3 mM glucose, compound up to 10 μM",insulin secretion is not observed
same,insulin secretion,"12 mM glucose, compared to the DMSO control",significant dose-dependent increase in insulin secretion
